Laboratory results published in the SangsterLogP compilation.

What was measured:
[1] = method code SF-AS, from DOI: 10.1002/em.2850200210, PMID: 1505530
[2] = method code SF, from DOI: 10.1248/yakushi1947.96.10_1169, PMID: 1033993; details: pH 0.7
[3] = method code SF, from DOI: 10.1016/s0045-6535(97)00338-x
[4] = not given; remark: listed apart in the source
[5] = method code SF-AS, from DOI: 10.1016/j.bioorg.2006.09.003, PMID: 17078995; details: pH 7.4
[6] = from Rich, R. (1990). Partition coefficients of quinones and their relation to biochemical reactivity. In Lenaz, G. (Ed.), Highlights in Ubiquinone Research: Proceedings of the International Symposium, …
[7] = method code SF-AS, from DOI: 10.1016/j.ejps.2010.09.003, PMID: 20854904
[8] = method code SF-AS, from DOI: 10.1007/bf01964075; details: pH 2.1
[9] = method code SF-AS, from DOI: 10.1016/s0045-6535(98)00368-3; details: for logD: pH 2.0
[10] = not given; remark: listed apart in the source
[11] = method code SF-HPLC, from PMID: 1293941
[12] = method code SF-AS, from DOI: 10.1002/jps.2600630206, PMID: 4204981
[13] = method code SF-AS, from DOI: 10.1007/bf01648987
[14] = not given; remark: listed apart in the source
[15] = not given; remark: listed apart in the source
[16] = method code SF-AS, from Jha, T.; Debnath, A.; Mazumdar, A.; Sengupta, C.; De, A. (1986). Hansch analysis of antineoplastic agents, 5-N-substituted-2-p-substituted benzenesulfonyl-L-glutamines. Ind. J. Chem., Sect. B, …
[17] = not given; remark: listed apart in the source
[18] = method code SF-AS, from DOI: 10.1128/aac.27.1.84, PMID: 2580479
[19] = method code SF-AS, from DOI: 10.1007/s001289900104, PMID: 8661852
[20] = not given; remark: listed apart in the source

O=[N+]([O-])c1ccc2c(c1)Cc1cc([N+](=O)[O-])ccc1-2
logP [1]: 3.35

CCC1(CC)C(=O)NC(=O)N(C)C1=O
logD [2]: 1.15

CC(=O)Nc1ccc(F)cc1F
logP [3]: 1.5

COC(=O)CS(=O)c1ccc(Cl)cc1[N+](=O)[O-] (stereo not given)
logP: 1.69

CCCC1(CC)C(=O)NC(=O)N(C)C1=O (stereo not given)
logD [2]: 1.65

Cc1ccc(OC(=O)C2OC(O)C(O)C(O)C2O)cc1 (stereo not given)
logP [4]: 0.37

CCC(=O)OCCc1ccc(O)c(O)c1
logD [5]: 1.2

Cc1c(O)ccc(O)c1C
logP [6]: 1.36

CCCC(C)C1(CC)C(=O)NC(=O)N(C)C1=O (stereo not given)
logD [2]: 2.45

O=C(O)COc1ccc(F)cc1
logD ([3]; pH 2.0): 1.57

O=C(CCNC1CCCCC1)c1ccccc1
logD ([7]; pH 11.0): 2.57

CCCC(=O)OCCc1ccc(O)c(O)c1
logD [5]: 1.77

CNC(=O)[C@H](Cc1ccc(O)cc1)NC(C)=O
logD [8]: -0.32

CN(C)CCC(=O)c1ccccc1
logD ([7]; pH 10.0): 1.77

COc1cc(OC)nc(NC(=O)NS(=O)(=O)c2ccccc2Cl)n1
logD [9]: 1.95

CCC1(CCC(C)C)C(=O)NC(=O)N(C)C1=O (stereo not given)
logD [2]: 2.45

c1ccc(CN2CCOCC2)cc1
logP [10]: 1.58

CC(C)N1CCOC(c2ccccc2)C1 (stereo not given)
logP [10]: 2.3

CCCCCCCOC(=O)c1ccc(N)cc1
logP [11]: 4.5

O=C1CC(C(=O)O)Oc2ccc(Cl)cc21 (stereo not given)
logP [12]: 1.77

CN(C)c1ccccc1
logP [13]: 2.29

Cc1cc(O)cc(C)c1O
logP [6]: 1

Cc1cc(O)ccc1O
logP [6]: 0.91

Cc1c(C)c(O)c(C)c(C)c1O
logP [6]: 1.8

O=[N+]([O-])c1cc(F)ccc1O
logP [3]: 1.88

c1cn(C23CC4CC(CC(C4)C2)C3)cn1
logP [14]: 2.9

OCCOc1cccc2ccccc12
logP [15]: 2.5

COC(=O)CS(=O)(=O)c1ccc([N+](=O)[O-])cc1
logP: 0.92

CCCCCNC(=O)CCC(NS(=O)(=O)c1ccccc1)C(=O)O (stereo not given)
logP [16]: -0.16

Cc1c(Cl)ccc(Cc2c(Cl)cccc2Cl)c1Cl
logP [17]: 6.58

O=C(O)C1CCc2cc(Cl)ccc2O1 (stereo not given)
logP [12]: 2.4

Cc1cc(Cl)ccc1O
logP [13]: 2.78

CCN1CCN(C(=O)N[C@@H](C(=O)N[C@@H]2C(=O)N3C(C(=O)O)=C(CSc4nnnn4C)CS[C@H]23)c2ccc(O)cc2)C(=O)C1=O
logP [18]: -0.74

O=C1c2cc([N+](=O)[O-])ccc2-c2ccc([N+](=O)[O-])cc21
logP [1]: 2.84

O=C(Oc1ccccc1)C1OC(O)C(O)C(O)C1O (stereo not given)
logP [4]: -0.69

COc1ccc(OC(=O)C2OC(O)C(O)C(O)C2O)cc1 (stereo not given)
logP [4]: -0.01

O=C(CCN1CCCCC1)c1ccccc1
logD ([7]; pH 10.0): 2.4

[N-]=[N+]=Nc1nc(N=[N+]=[N-])nc(Nc2ccccc2)n1
logP [19]: 3.88

Oc1cccc(O)c1
logD [8]: 0.83

Cc1cc(Cc2c(Cl)cccc2Cl)c(Cl)cc1Cl
logP [17]: 6.53

Clc1nc(Cl)nc(Nc2ccccc2)n1
logP [19]: 3.03

CCCNC(=O)CCC(NS(=O)(=O)c1ccccc1)C(=O)O (stereo not given)
logP [16]: -0.08

CCOC(=O)/C=C/c1ccccc1
logP [13]: 2.91

O=S(=O)(CBr)c1ccc(F)cc1
logP [3]: 1.74

Cc1c(Cl)ccc(Cc2ccc(Cl)cc2Cl)c1Cl
logP [17]: 6.85

O=C(Oc1ccc(-c2ccccc2)cc1)C1OC(O)C(O)C(O)C1O (stereo not given)
logP [4]: 1.79

CC(=O)NC1CC1c1ccccc1 (stereo not given)
logP [13]: 1.43

O=C(Oc1ccc2cc(Br)ccc2c1)C1OC(O)C(O)C(O)C1O (stereo not given)
logP [4]: 1.97

CCCC(=O)OCCc1ccc(O)c(OC)c1
logD [5]: 2.54

CCCCCCNC(=O)CCC(NS(=O)(=O)c1ccc(C)cc1)C(=O)O (stereo not given)
logP [16]: 0.92

c1ccc2c(c1)ncn2C12CC3CC(CC(C3)C1)C2
logP [14]: 3.64

CC(Oc1ccc(Cl)cc1)C(=O)O (stereo not given)
logP [12]: 2.31

COC(=O)CSc1ccc([N+](=O)[O-])cc1
logP: 2.29

COC(=O)CS(=O)c1ccccc1[N+](=O)[O-] (stereo not given)
logP: 0.98

O=[N+]([O-])c1ccc2ccccc2c1
logP [1]: 3.24

CN(c1ccccc1)c1nc(Cl)nc(Cl)n1
logP [19]: 3.07

O=C(O)CCCCCOc1cccc2ccccc12
logP [15]: 4.5

O=[N+]([O-])c1cccc2c([N+](=O)[O-])cccc12
logP [1]: 2.58

CCN(CC)CC
logP [20]: 1.36

COC(=O)c1ccccc1S(=O)(=O)NC(=O)Nc1nc(C)cc(C)n1
logP [15]: 1.3

CC(=O)Oc1ccc(F)cc1
logP [3]: 1.41

CCN(CC)CCC(=O)c1ccccc1
logD ([7]; pH 10.0): 1.59

c1ccc2c(c1)cnn2C12CC3CC(CC(C3)C1)C2
logP [14]: 4.33

O=C(O)C1COc2ccccc2O1 (stereo not given)
logP [12]: 1.4

CO[C@@]1(NC(=O)Cc2cccs2)C(=O)N2C(C(=O)O)=C(COC(N)=O)CS[C@@H]21
logP [18]: -0.02

O=C(O)CCCOc1cccc2ccccc12
logP [15]: 3.5

Oc1ccc(Br)cc1Br
logP [13]: 3.48

COC(=O)CS(=O)c1ccc([N+](=O)[O-])cc1 (stereo not given)
logP: 0.98

COC(=O)c1ccccc1S(N)(=O)=O
logP [9]: 0.01

Nc1ccc(-c2ccc(N)cc2)cc1
logP [20]: 1.53

CCNC(=O)CCC(NS(=O)(=O)c1ccccc1)C(=O)O (stereo not given)
logP [16]: 0.38

COC(=O)c1ccccc1CS(N)(=O)=O
logP [9]: 0.37

Fc1cccc(C2CNCCO2)c1 (stereo not given)
logP [10]: 1.42

Cc1cc(Cc2ccc(Cl)cc2Cl)c(Cl)cc1Cl
logP [17]: 6.77

COC(=O)c1ccccc1S(=O)(=O)NC(=O)Nc1nc(OC)cc(OC)n1
logD [9]: 1.78

CC(=O)OCCc1ccc(O)c(O)c1
logD [5]: 0.95

CC(C(=O)O)c1ccc(N2CC=CC2)c(Cl)c1 (stereo not given)
logP [20]: 3.58

CNC(=O)[C@@H](NC(C)=O)C(C)C
logD [8]: -0.35

CNC(=O)C1CCCN1C(C)=O (stereo not given)
logD [8]: -1.19

c1cnn(C23CC4CC(CC(C4)C2)C3)c1
logP [14]: 3.05

NS(=O)(=O)c1ccccc1Cl
logP [9]: 0.79

CCCCCOC(=O)c1ccc(N)cc1
logP [11]: 3.48

O=C(O)C1Cc2cc(Cl)ccc2O1 (stereo not given)
logP [12]: 2.11

Cn1nnnc1SCC1=C(C(=O)O)N2C(=O)[C@@H](NC(=O)CSCC#N)[C@H]2SC1
logD ([18]; pH 2.0): -0.62

CC1=CC(=O)C=C(C)C1=O
logP [6]: 0.95

Cc1cc(Cl)c(Cl)cc1Cc1c(Cl)cccc1Cl
logP [17]: 6.03

CCCCCCCCOC(=O)c1ccc(N)cc1
logP [11]: 5.02

CCCOC(=O)c1ccc(N)cc1
logP [11]: 2.43

C=CCC1(CC=C)C(=O)NC(=O)N(C)C1=O
logD [2]: 1.55

CN(C)Cc1ccccc1
logP [20]: 1.91

CCN1CCN(C(=O)N[C@@H](C(=O)N[C@@H]2C(=O)N3[C@@H]2SC(C)(C)[C@@H]3C(=O)O)c2ccccc2)C(=O)C1=O
logP [18]: 0.5

Cc1ccc(S(=O)(=O)NC(CCC(=O)NC2CCCCC2)C(=O)O)cc1 (stereo not given)
logP [16]: 0.32

CC(=O)OCC1=C(C(=O)O)N2C(=O)[C@@H](NC(=O)CC#N)[C@H]2SC1
logP [18]: -0.45

O=C(O)CCCCOc1cccc2ccccc12
logP [15]: 4

CC[C@H](C)[C@H](NC(C)=O)C(=O)NC
logD [8]: 0.14

FC(F)(F)c1cccc(C2CNCCO2)c1 (stereo not given)
logP [10]: 2.18

Clc1ncc(-c2ncncn2)c(Cl)n1
logP [19]: 1.32

O=[N+]([O-])c1c(O)nc(-c2ncncn2)nc1O
logP [19]: 2.02

c1ccc2nn(C34CC5CC(CC(C5)C3)C4)nc2c1
logP [14]: 4.3

CCn1ccc(NS(=O)(=O)c2ccc(N)cc2)nc1=O
logP [20]: -0.2

Cc1cc(CCO)ccc1O
logD [5]: 0.5

CCCCCCOC(=O)c1ccc(N)cc1
logP [11]: 3.95

O=C(CCN1CCCC1)c1ccccc1
logD ([7]; pH 10.0): 1.91

c1ccc(C2CNCCO2)cc1 (stereo not given)
logP [10]: 1.11

O=[N+]([O-])c1cccc2cccnc12
logP [1]: 1.44
